Test results reported in patent publication US11077205B2, “Synthetic compound for improving efficiency of transfection” (Klinikum der Universität München, priority 2016, dated 2021).
The star is where a group is joined. ξ: configuration not given here. Lipoyl(6ξ) = O=C(CCCCC1CCSS1)*

Test system: 16HBE cells
Test: In vitro transfection, Metridia luciferase assay in 16HBE cells
Type: cell-based, human
Description: Preparation of IVT-mRNA/pDNA containing binary and ternary complexes: Stock solutions of P704 (5 mg/ml) and synthetic compound (1 mg/ml) were prepared in nuclease-free water (NF water) and stored at 4° C. P704 based binary complexes (P704/IVT-mRNA or P704/pDNA) were prepared by mixing equal volumes of diluted P704 stock solution with IVT-mRNA or pDNA solution at the desired concentration in 2× Tyrode's solution. Ternary complexes were generated via two-steps incubation. Briefly, P704 solutions at certain concentration (defined as weight/weight (w/w) ratio between P704 and nucleic acids) in NF-water were mixed with equal volume of synthetic compound solution at specific concentration (defined as N/P ratio, namely the […] between nitrogen residues in synthetic compound and nucleic acids phosphate groups). After 20 min incubation at room temperature (RT), same volumes of nucleic acid (IVT-mRNA or pDNA) solution in NF-water were added to the above P704/synthetic compound solution and mixed gently by pipetting up and down several times. Subsequently, complexes were incubated for another 20 min at RT prior to further use. IVT-mRNA or pDNA solutions in NF-water were complexed with brPEI (25 kDa) at an optimum N/P ratio, the resulting complexes were served as a control polyplex. As for control lipoplex, Lipofectamine® 2000 complexes were prepared according to the manufacturer's instructions using optimum concentration. In order to prepare DOTAP/DOPE liposomes, a lipid film was formed by removing the chloroform solvent in DOTAP/DOPE mixture solution under nitrogen atmosphere. The lipid film is hydrated with NF-water to make the final concentration 10 mM DOTAP/DOPE. The DOTAP/DOPE liposome formulation was formed by mixing 250 μl of pDNA encoding for firefly luciferase and cystic fibrosis transmembrane conductance regulator (fLUC-CFTR pDNA) (150 μg) containing solution and 250 μl diluted DOTAP/DOPE solution (190 μl of 10 mM DOTAP/DOPE liposome and 60 μl NF-water). The mix solution was incubated at RT for 20 min prior to further use.
In vitro transfection: For the luciferase assay, cells were seeded at a density of 1.8×10^4/well (BEAS-2B) or 3.5×10^4/well (16HBE) in 96-well plates 24 h before transfection to reach 60-80% confluence. Following removal of growth medium, cells were rinsed with DPBS (Gibco, Germany). 170 μl of fresh serum-free OptiMEM (Gibco, Germany) were added per well, and subsequently 30 μl of IVT-mRNA or pDNA containing complexes prepared, as described above, corresponding to 400 ng IVT-mRNA or pDNA per well, were added in replicates of five. After 4 h of incubation at 37° C. in a humidified 5% CO2-containing atmosphere, the transfection medium was replaced with culture medium supplemented with 10% FBS and 1% (v/v) penicillin/streptomycin. Luciferase activity in 50 μl supernatants from transfected cells was assayed with Metridia luciferase substrate (coelenterazine, Invivogen, France) after 24 h using a FLUOstar microplate reader (BMG Labtech, Germany) and its activity is expressed in relative light units (RLU). In all cases each sample was measured on at least two other occasions to ensure the reproducibility of the data. […]
The concentration of P704 in ternary complexes for treatment of BEAS-2B cells was 50 (w/w) and the concentration of P704 in ternary complexes for treatment of 16HBE cells was 63 (w/w). The N/P ratios of the compounds in ternary complexes were as follows:
16HBE cells: Compound 0 (DL) at 20, compounds 1 and 11 at 15, compounds 2 and 3 at 10, compounds 4, 6, 8, and 9 at 5, compounds 5, 7, and 10 at 2.5.
The same transfection procedure as described above was applied.
The concentration of P704 in ternary complexes was 63 (w/w). The N/P ratio of the compounds in certain ternary complexes was as follows:
16HBE cells: Compound 1, 8, and 11 at 20; compound 0 (DL) and 3 at 10; compound 2 at 7.5; compounds 4, 6, 9, and 10 at 5, compounds 5 and 7 at 2.5. […]

Substance | IVT-mRNA transfection efficiency of P704 ternary complex (in words) (MetLuc mRNA, P704 63 (w/w), optimum N/P, FIG. 17b) | pDNA transfection efficiency of P704 ternary complex (in words) (MetLuc pDNA, P704 63 (w/w), optimum N/P, FIG. 14b) | pDNA expression compared with compound 3 containing ternary complex (other days than day 2)
KETWWETWWTEWWTEW-KKKKRRRRRKKKK-GACSERSMNFCG (KETWWETWWTEWWTEWKKKKRRRRRKKKKGACSERSMNFCG) [compound 9] | more superior to other counterparts | overwhelming signals | –
NH2-VKRKKKPKKRRRRKKWK(DL-lipoic acid)-CONH2 (H-VKRKKKPKKRRRRKKWK(Lipoyl(6ξ))-NH2; SMILES CC(C)[C@H](N)C(=O)N[C@@H](CCCCN)C(=O)N[C@@H](CCCNC(=N)N)C(=O)N[C@@H](CCCCN)C(=O)N[C@@H](CCCCN)C(=O)N[C@@H](CCCCN)C(=O)N1CCC[C@H]1C(=O)N[C@@H](CCCCN)C(=O)N[C@@H](CCCCN)C(=O)N[C@@H](CCCNC(=N)N)C(=O)N[C@@H](CCCNC(=N)N)C(=O)N[C@@H](CCCNC(=N)N)C(=O)N[C@@H](CCCNC(=N)N)C(=O)N[C@@H](CCCCN)C(=O)N[C@@H](CCCCN)C(=O)N[C@@H](Cc1c[nH]c2ccccc12)C(=O)N[C@@H](CCCCNC(=O)CCCCC1CCSS1)C(N)=O) [compound 0 (DL)] | – | – | significantly higher
